Our source for the TGI and GI50 values is PubChem BioAssay (NCI).

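Compound exposure: 48 hours, 5 concentrations, 96-well plates. Abbreviation: GI50, concentration required for 50% inhibition of growth. TGI marks complete inhibition of growth.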

Test systems include HCC-2998 colon; A498 renal; NCI-H23 lung; HT29 colon; NCI-H522 lung; SW-620 colon; UO-31 renal; SF-539 CNS; PC-3 prostate; OVCAR-8 ovarian.
Assay in all cases: growth of human tumour cells (NCI), 48 h

Regarding `Cc1cc(Cl)ccc1NC(=O)CCCC(=O)C(C(=O)c1ccccc1)c1ccccc1` (configuration not stated), the TGI in the test with HCC-2998 colon, in the test on A498 renal, in the test on NCI-H23 lung, with HT29 colon and in the test with NCI-H522 lung was over 100 µM in each case.
For `CCN(CC)CCOc1nc2cc(OC)c(OC)cc2c2c1-c1ccc(OC)cc1C2=O`, the GI50 with HCC-2998 colon is 14.3 µM; in the test on SW-620 colon, 1.21 µM; in the test on NCI-H23 lung, 12.5 µM; in the test with UO-31 renal it was 1.77 µM; in the test with HT29 colon, 1.67 µM; in the test on NCI-H522 lung, 0.312 µM. The GI50 was 8.62 µM in the test with SF-539 CNS, 12.3 µM in the test with PC-3 prostate and 8.62 µM in the test on OVCAR-8 ovarian. The TGI in the test with HCC-2998 colon was 27.6 µM; in the test with SW-620 colon, 2.68 µM; with NCI-H23 lung, 27.9 µM; with UO-31 renal, 14.2 µM; in the test with HT29 colon, 3.11 µM; in the test with NCI-H522 lung it was 18.7 µM. The figures for the TGI in the test with SF-539 CNS, in the test with PC-3 prostate and in the test on OVCAR-8 ovarian were 23.6 µM, 26.8 µM and 21.4 µM, respectively.
As to `O=C(O)c1oc2cccc3c2c1CCC3`, the TGI with HCC-2998 colon, in the test on A498 renal, with SW-620 colon, in the test with NCI-H23 lung, in the test on UO-31 renal and with HT29 colon was over 100 µM in each case. For the same compound, the TGI in the test with NCI-H522 lung, with SF-539 CNS and with OVCAR-8 ovarian was over 100 µM throughout.
On to `[N-]=[N+]=Nc1c(Br)c(=O)[nH]c(=O)n1COCCO`, for which the TGI in the test on HCC-2998 colon, in the test on SW-620 colon, with NCI-H23 lung, with UO-31 renal, with HT29 colon and in the test with NCI-H522 lung was over 100 µM throughout. The TGI with SF-539 CNS and in the test on OVCAR-8 ovarian was over 100 µM each time.
In the case of `CNC(C)Cc1ccc(O)cc1` (configuration not stated), the TGI with HCC-2998 colon, in the test on A498 renal, with SW-620 colon, in the test with NCI-H23 lung, in the test with UO-31 renal and in the test with HT29 colon was over 100 µM in each case. For the same compound, the TGI in the test with NCI-H522 lung, in the test on SF-539 CNS and in the test with OVCAR-8 ovarian was over 100 µM throughout.
Regarding `c1ccc(COc2cccc3cccnc23)cc1`, the TGI in the test on HCC-2998 colon, in the test on SW-620 colon, with NCI-H23 lung, with UO-31 renal, with HT29 colon and in the test with NCI-H522 lung was over 100 µM in each case. The TGI in the test on SF-539 CNS and in the test on OVCAR-8 ovarian was over 100 µM throughout.
Turning to `CC1=NN(C(=O)c2cc(Cl)cc([N+](=O)[O-])c2)C(=O)C1N=Nc1ccccc1C(=O)O` (configuration not stated), the TGI in the test on HCC-2998 colon, in the test with A498 renal, in the test on SW-620 colon, in the test with NCI-H23 lung, in the test on UO-31 renal and in the test on HT29 colon was over 100 µM in each case. Moreover, the TGI with NCI-H522 lung, in the test with SF-539 CNS and in the test on OVCAR-8 ovarian was over 100 µM throughout.
Consider `CCOC(=O)/C(C#N)=C(N)/C(=N\Nc1cccc(C(F)(F)F)c1)C(=O)OCC`, for which the TGI with HCC-2998 colon, in the test with A498 renal, in the test with SW-620 colon, in the test with NCI-H23 lung, in the test on UO-31 renal and in the test on HT29 colon was over 100 µM throughout. In addition, the TGI in the test on NCI-H522 lung, in the test with SF-539 CNS and with OVCAR-8 ovarian was over 100 µM throughout.
Take `COC(=O)C12C3C4C1C1C2C3C41C(=O)N(C(C)C)C(C)C` (configuration not stated): the TGI in the test on HCC-2998 colon, in the test with A498 renal, with SW-620 colon, in the test on NCI-H23 lung, in the test with UO-31 renal and in the test with HT29 colon was over 100 µM each time. Further, the TGI in the test with NCI-H522 lung, in the test on SF-539 CNS and in the test on OVCAR-8 ovarian was over 100 µM in each case.
In the case of `Cc1cccc(O)c(=O)c1`, the TGI with HCC-2998 colon, with A498 renal, in the test on SW-620 colon, with UO-31 renal, with HT29 colon and in the test with NCI-H522 lung was over 100 µM each time. In addition, the TGI in the test with SF-539 CNS and in the test on OVCAR-8 ovarian was over 100 µM in each case.
As to `CCCCN(CCCC)C(=O)C(=O)CC(=O)/C=C/c1ccccc1`, the TGI in the test with HCC-2998 colon, in the test on A498 renal, in the test on SW-620 colon, in the test with NCI-H23 lung, in the test with UO-31 renal and in the test with HT29 colon was over 100 µM in each case. The TGI with NCI-H522 lung, in the test on SF-539 CNS and in the test on OVCAR-8 ovarian was over 100 µM each time.
Turning to `CCCCCCCCCCCCCCC(O)C1CCC(C(O)CCC(O)CCCCCC(O)CC2=CC(C)OC2=O)O1` (configuration not stated), the TGI turned out to be 4.94 µM with HCC-2998 colon; 20.5 µM in the test on A498 renal; 13.9 µM with SW-620 colon; 12.1 µM in the test on NCI-H23 lung; 6.78 µM in the test on UO-31 renal; 8.68 µM in the test on HT29 colon. The TGI with NCI-H522 lung stood at 7.4 µM; in the test with SF-539 CNS it was 17.8 µM; in the test with OVCAR-8 ovarian, 14.8 µM.
Take `CC(=O)NS(=O)(=O)c1ccc(-n2nc(-c3ccccc3)cc2C2=CC(=O)C=CC2=O)cc1`: the GI50 in the test on SW-620 colon is 36.6 µM; in the test on NCI-H23 lung, over 100 µM; with UO-31 renal, over 100 µM; with HT29 colon it was over 100 µM; in the test with NCI-H522 lung, over 100 µM; in the test with PC-3 prostate it was over 100 µM. For the same compound, in the test on OVCAR-8 ovarian, the GI50 is over 100 µM. Also, the TGI with SW-620 colon, in the test on NCI-H23 lung, with UO-31 renal, in the test with HT29 colon, in the test on NCI-H522 lung and in the test with PC-3 prostate was over 100 µM each time. In addition, in the test on OVCAR-8 ovarian, the TGI is over 100 µM.
`CCOC(=O)NC(=O)c1cn(C2OC(CO)C(O)C2O)c(=O)[nH]c1=O` (configuration not stated): the TGI with HCC-2998 colon, in the test on A498 renal, with SW-620 colon, in the test on UO-31 renal, with HT29 colon and in the test with NCI-H522 lung was over 100 µM throughout. In addition, the TGI in the test with SF-539 CNS and in the test on OVCAR-8 ovarian was over 100 µM in each case.
